Data on 10 molecules can be found in ChEMBL document CHEMBL1201862, “PubChem BioAssay data set” (2004).

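Method: 48-hour compound exposure of cells in 96-well plates, five concentrations, linear interpolation of endpoints. GI50 marks 50% less growth.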 The source made the active and inactive calls. Rule as the data show it: active = GI50 up to about 1.1 µM and inactive = higher. Where only a bound is given, the exact number is not on record here.

Some test systems named below: ACHN; SF-539; XF498; NCI-H23; SN12C; OVCAR-4; HCC 2998; SF-268; Malme-3M; TK-10; SNB-19; HCT-15; IGROV-1; SK-MEL-28; KM-20L2; OVCAR-3; OVCAR-8; A549; CAKI-1; K562.
Holding throughout (experiment): growth of human tumour cells (NCI), 48 h

In the case of `C/C(=N/NC(N)=S)c1ccc2ccccc2c1`, the GI50 with ACHN was 55.6 µM (inactive); in the experiment on SF-539, 17.1 µM (inactive); in the experiment on XF498, 82.2 µM (inactive); in the experiment on NCI-H23, 29.7 µM (inactive); in the experiment with SN12C, 32.7 µM (inactive); in the experiment with OVCAR-4 it was 28.3 µM (inactive). Further, the GI50 in the experiment with HCC 2998 was 16 µM (inactive); with SF-268 it was 23.3 µM (inactive); in the experiment on Malme-3M, 41 µM (inactive); with TK-10, 74.6 µM (inactive); with SNB-19 it was 83.2 µM (inactive); in the experiment with HCT-15, 22.2 µM. Also, the GI50 was 32.7 µM (inactive) with IGROV-1; 36.1 µM (inactive) with SK-MEL-28; 23.7 µM (inactive) in the experiment with KM-20L2; 30.4 µM (inactive) in the experiment with OVCAR-3; 32.9 µM (inactive) in the experiment with OVCAR-8; 24.4 µM (inactive) in the experiment on A549.

On to `C=CCCCCCCCCC(=O)O` [UNDECYLENIC ACID], for which the GI50 with CAKI-1 is 106 µM (inactive); with SF-539, 110 µM (inactive); in the experiment on K562, 152 µM (inactive); in the experiment with XF498, 17.1 µM (inactive); in the experiment on NCI-H23, 122 µM (inactive); with SN12C it was 149 µM (inactive). In addition, the GI50 in the experiment with OVCAR-4 is 132 µM (inactive); in the experiment with HCC 2998 it was 108 µM (inactive); with SF-268, 91 µM (inactive); in the experiment on Malme-3M it was 142 µM (inactive); with SNB-19 it was 150 µM (inactive); in the experiment on HCT-15, 76.6 µM. In addition, the GI50 is 113 µM (inactive) in the experiment on IGROV-1; 135 µM (inactive) in the experiment on SK-MEL-28; 114 µM (inactive) in the experiment on KM-20L2; 67 µM (inactive) in the experiment with OVCAR-3; 121 µM (inactive) with OVCAR-8; 103 µM (inactive) in the experiment with A549.

As to `CCOc1ccc(NC(=O)C(=O)CC(=O)c2sc(NNC(C)=O)nc2C)cc1`, the GI50 in the experiment with CAKI-1, in the experiment with ACHN, with SF-539, with K562, in the experiment on XF498 and in the experiment with NCI-H23 was > 100 µM (inactive) each time. Further, the GI50 with SN12C, in the experiment on OVCAR-4, in the experiment on HCC 2998, in the experiment on SF-268, in the experiment on TK-10 and in the experiment on SNB-19 was > 100 µM (inactive) throughout. Further, the GI50 in the experiment with HCT-15 was greater than 100 µM; with IGROV-1, > 100 µM (inactive); with SK-MEL-28, > 100 µM (inactive); with KM-20L2, > 100 µM (inactive); with OVCAR-8, > 100 µM (inactive); in the experiment on A549, > 100 µM (inactive).

In the case of `COC1OC2=CCC3C(=O)NC(=O)C3C2[C@H](OCc2ccccc2)C1OCc1ccccc1` (some centres undefined), the GI50 is 19.9 µM (inactive) in the experiment on ACHN; 17.3 µM (inactive) in the experiment on SF-539; 1.82 µM (inactive) in the experiment with K562; 2.22 µM (inactive) in the experiment with NCI-H23; 1.74 µM (inactive) with SN12C; 3.84 µM (inactive) with OVCAR-4. Besides, the GI50 in the experiment on HCC 2998 is 3.74 µM (inactive); in the experiment with Malme-3M, 1.77 µM (inactive); in the experiment with TK-10 it was 1.72 µM (inactive); in the experiment on HCT-15 it was 1.93 µM; in the experiment on IGROV-1, 2.04 µM (inactive); in the experiment with SK-MEL-28, 1.84 µM (inactive). Besides, the GI50 was 2.25 µM (inactive) in the experiment on KM-20L2, 1.71 µM (inactive) in the experiment on OVCAR-3, 1.6 µM (inactive) in the experiment on OVCAR-8 and 18.9 µM (inactive) in the experiment on A549.

As to `COc1ccc(CN2C(=O)C(=O)N(C)C2=O)c2ccccc12`, the GI50 with CAKI-1, with ACHN, in the experiment with SF-539, in the experiment on K562, in the experiment on NCI-H23 and in the experiment with SN12C was > 10 µM (inactive) in each case. The GI50 with OVCAR-4, with HCC 2998, in the experiment with SF-268, in the experiment on Malme-3M, with TK-10 and with SNB-19 was > 10 µM (inactive) each time. In addition, the GI50 is greater than 10 µM in the experiment with HCT-15; > 10 µM (inactive) in the experiment on IGROV-1; > 10 µM (inactive) with SK-MEL-28; > 10 µM (inactive) with OVCAR-3; > 10 µM (inactive) with OVCAR-8; > 10 µM (inactive) in the experiment with A549.

For the molecule `COc1ccc(-c2cc3[nH]nc(N)c3c(=O)o2)cc1`, the GI50 was 73.6 µM (inactive) in the experiment on CAKI-1; > 100 µM (inactive) in the experiment on ACHN; > 100 µM (inactive) in the experiment on SF-539; > 100 µM (inactive) in the experiment on K562; > 100 µM (inactive) in the experiment on XF498; > 100 µM (inactive) in the experiment on NCI-H23. Besides, the GI50 in the experiment with SN12C was > 100 µM (inactive); in the experiment on OVCAR-4, > 100 µM (inactive); in the experiment with HCC 2998, > 100 µM (inactive); with SF-268, 81.3 µM (inactive); with Malme-3M it was > 100 µM (inactive); with TK-10, > 100 µM (inactive). The GI50 in the experiment with SNB-19 is > 100 µM (inactive); with HCT-15 it was greater than 100 µM; in the experiment with IGROV-1, > 100 µM (inactive); in the experiment on SK-MEL-28, > 100 µM (inactive); with KM-20L2 it was > 100 µM (inactive); with OVCAR-8, > 100 µM (inactive). Further, the GI50 in the experiment on A549 was > 100 µM (inactive).

On to `CC(=O)OCc1nnn2c1CCC2`, for which the GI50 is > 100 µM (inactive) in the experiment on ACHN; > 100 µM (inactive) with SF-539; > 100 µM (inactive) with K562; > 100 µM (inactive) with XF498; > 10 µM (inactive) in the experiment on NCI-H23; > 100 µM (inactive) in the experiment with SN12C. Also, the GI50 in the experiment with OVCAR-4 is > 100 µM (inactive); with HCC 2998, > 100 µM (inactive); with Malme-3M, > 100 µM (inactive); in the experiment on TK-10, > 100 µM (inactive); in the experiment with HCT-15, greater than 100 µM; in the experiment on IGROV-1, > 100 µM (inactive). Besides, the GI50 with SK-MEL-28, in the experiment on KM-20L2, in the experiment with OVCAR-3, with OVCAR-8 and in the experiment with A549 was > 100 µM (inactive) each time.

Take `CN(Cc1cnc2nc(N)nc(N)c2n1)c1ccc(C(=O)NC(CCC(=O)O)C(=O)O)cc1C(F)(F)F` (centres undefined): the GI50 in the experiment with CAKI-1, in the experiment on ACHN, in the experiment with SF-539, in the experiment on K562, in the experiment with NCI-H23 and in the experiment on SN12C was < 0.01 µM (active) in each case. Besides, the GI50 in the experiment with OVCAR-4 is > 100 µM (inactive); with HCC 2998 it was < 0.01 µM (active); in the experiment with SF-268, < 0.01 µM (active); in the experiment on Malme-3M, > 100 µM (inactive); with TK-10, > 78.3 µM (inactive); in the experiment on HCT-15 it was less than 0.01 µM. Besides, the GI50 in the experiment with IGROV-1 is < 0.01 µM (active); in the experiment with SK-MEL-28, > 100 µM (inactive); with OVCAR-8, < 0.01 µM (active); in the experiment on A549 it was < 0.01 µM (active).

Take `COc1ccc2c(c1)C(=O)/C(=C/c1ccccc1)C2`: the GI50 with CAKI-1 is 20.2 µM (inactive); with K562, 29 µM (inactive); in the experiment with NCI-H23, 42.4 µM (inactive); in the experiment with SN12C, > 100 µM (inactive); in the experiment on OVCAR-4 it was 55.7 µM (inactive); with Malme-3M, > 100 µM (inactive). Moreover, the GI50 in the experiment on SNB-19 was 95.1 µM (inactive); in the experiment with HCT-15, 69 µM; in the experiment with IGROV-1 it was > 100 µM (inactive); with SK-MEL-28 it was > 100 µM (inactive); in the experiment with OVCAR-3 it was 39.2 µM (inactive); with OVCAR-8, > 100 µM (inactive).

For the molecule `O=C1C=C(C2OC(CO)C(O)C2O)C(=O)N1` (centres undefined), the GI50 in the experiment with SF-539 was > 100 µM (inactive); with K562, 47.6 µM (inactive); in the experiment on XF498, < 0.01 µM (active); in the experiment with NCI-H23, > 100 µM (inactive); in the experiment on SN12C it was > 100 µM (inactive); with OVCAR-4 it was > 100 µM (inactive). In addition, the GI50 in the experiment with HCC 2998 was > 100 µM (inactive); with SF-268, > 100 µM (inactive); in the experiment on Malme-3M, > 100 µM (inactive); in the experiment on SNB-19, > 100 µM (inactive); with HCT-15, greater than 74.5 µM; in the experiment on IGROV-1, > 100 µM (inactive). The GI50 in the experiment on SK-MEL-28, in the experiment on KM-20L2, in the experiment on OVCAR-3, in the experiment on OVCAR-8 and in the experiment on A549 was > 100 µM (inactive) in each case.
